Biological target: CBP (Homo sapiens (Human), UniProt Q92793)
Test: HTRF biochemical assay for CBP activity (TR-FRET, bromodomain)
Assay type: binding
Details: geometric mean, 10-point 3-fold dilution 33 μM to 1.7 nM, read-out: BROMO IC50 TRF TB CBP (μM gmean)
Outline: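 IC50 derives from a 4-parameter logistic fit of % inhibition, calculated from the 520/490 nm TR-FRET ratio against DMSO and no-enzyme controls. Final compound levels spanned 33 μM to 1.7 nM (10 points, 3-fold), with CBP and peptide ligand in Hepes pH 7.5/GSH/BGG/BSA/Triton buffer, incubated at room temperature for varying times.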

Sequence of CBP (Q92793 1085-1192): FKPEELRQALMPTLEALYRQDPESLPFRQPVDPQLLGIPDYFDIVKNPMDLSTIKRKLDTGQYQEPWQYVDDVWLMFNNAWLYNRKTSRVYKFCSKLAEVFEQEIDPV

Compound	IC50 [µM]
COC(=O)N1CCc2ccc3c(nc([C@@H]4CCC[C@@H](C(=O)O)C4)n3C[C@H]3CC[C@H](OC)CC3)c2C1 [Compound 262]	0.01 to 0.1
COC(=O)N1CCc2ccc3c(nc([C@H]4CC[C@@H](C(=O)O)CC4)n3[C@@H](C)Cn3cc(Cl)cn3)c2C1 [Compound 264]	0.01 to 0.1
COC(=O)N1CCc2ccc3c(nc([C@H]4CC[C@H](C(=O)O)CC4)n3[C@H](C)CC3CCOCC3)c2C1 [Compound 265]	0.01 to 0.1
COC(=O)N1CCc2ccc3c(nc([C@H]4CC[C@H](C(=O)O)CC4)n3[C@H](C)Cc3cccc(F)c3F)c2C1 [Compound 266]	0.01 to 0.1
COC(=O)N1CCc2ccc3c(nc([C@H]4CC[C@H](C(=O)O)CC4)n3[C@H](C)C[C@]3(C)CC[C@@H](OC)CC3)c2C1 [Compound 267]	0.01 to 0.1
COC(=O)N1CCc2ccc3c(nc([C@H]4CC[C@H](C(=O)O)CC4)n3[C@@H](C)[C@H](O)c3ccccc3)c2C1 [Compound 268]	0.01 to 0.1
COC(=O)N1CCc2c(C#N)cc3c(nc([C@H]4CC[C@H](C(=O)O)CC4)n3[C@H](C)Cc3ccccc3)c2C1 [Compound 269]	0.01 to 0.1
COC(=O)N1CCc2ccc3c(nc([C@H]4CC[C@](C)(C(=O)O)CC4)n3[C@@H](CO)Cc3ccccc3)c2C1 [Compound 270]	0.01 to 0.1
COC(=O)N1CCc2ccc3c(nc([C@H]4CC[C@H](C(=O)O)CC4)n3C3(Cc4ccccc4)COC3)c2C1 [Compound 271]	0.01 to 0.1
COC(=O)N1CCc2ccc3c(nc([C@@H]4CCC[C@@H](C(=O)O)C4)n3Cc3cccc(OC)n3)c2C1 [Compound 272]	0.01 to 0.1
COC(=O)N1CCc2ccc3c(nc(Cc4cc(O)no4)n3[C@H](C)Cc3ccccc3)c2C1 [Compound 273]	0.01 to 0.1
COC(=O)N1CCc2ccc3c(nc(C4CCCCC4)n3[C@@H](C)C[C@H]3CC[C@@H](C(=O)O)CC3)c2C1 [Compound 274]	0.01 to 0.1
COC(=O)N1CCc2ccc3c(nc([C@H]4CC[C@H](C(=O)O)CC4)n3[C@H](C)C[C@H]3CCCOC3)c2C1 [Compound 275]	0.01 to 0.1
COC(=O)N1CCc2ccc3c(nc([C@H]4CC[C@H](C(=O)O)CC4)n3[C@H](C)[C@H](O)c3ccccc3)c2C1 [Compound 276]	0.01 to 0.1
COC(=O)N1CCc2ccc3c(nc([C@H]4CCC[C@H](C(=O)O)C4)n3Cc3cccc(OC)n3)c2C1 [Compound 277]	0.01 to 0.1
COC(=O)N1CCc2ccc3c(nc(-c4ccc(C(=O)O)cc4)n3[C@H](C)Cc3ccccc3)c2C1 [Compound 279]	0.01 to 0.1

Compound	IC50 [µM]
COC(=O)N1CCc2ccc3c(nc(-c4ccc(C(=O)O)c(F)c4)n3[C@H](C)Cc3ccccc3)c2C1 [Compound 280]	0.01 to 0.1
COC(=O)N1CCc2ccc3c(nc(C4CCCCC4)n3C[C@@H](C(=O)O)C3CCCCC3)c2C1 [Compound 281]	0.01 to 0.1
COC(=O)N1Cc2c(ccc3c2nc(C2CCCCC2)n3Cc2ccccc2)C[C@H]1C [Compound 282]	0.01 to 0.1
COC(=O)N1CCc2ccc3c(nc(N4CCC(C(=O)O)CC4)n3[C@H](C)Cn3cc(C(F)(F)F)cn3)c2C1 [Compound 285]	0.01 to 0.1
COC(=O)N1CCc2ccc3c(nc([C@H]4CC[C@H](C(=O)O)CC4)n3[C@H](C)Cc3ccc(F)c(OC)c3)c2C1 [Compound 286]	0.01 to 0.1
COC(=O)N1CCc2ccc3c(nc([C@H]4CC[C@H](C(=O)O)CC4)n3[C@H](C)C[C@H]3CC[C@H](OC)CC3)c2C1 [Compound 287]	0.01 to 0.1
COC(=O)N1CCc2ccc3c(nc([C@H]4CC[C@H](C(=O)O)CC4)n3[C@H](CO)Cc3ccc(F)c(F)c3)c2C1 [Compound 288]	0.01 to 0.1
COC(=O)N1CCc2ccc3c(nc([C@H]4CC[C@H](C(=O)O)CC4)n3[C@@H](C)Cc3c(F)cccc3F)c2C1 [Compound 289]	0.01 to 0.1
COC(=O)N1CCc2ccc3c(nc([C@H]4CC[C@@H](C(=O)O)CC4)n3CCn3cc(Cl)cn3)c2C1 [Compound 291]	0.1 to 1
COC(=O)N1CCc2ccc3c(nc([C@H]4CC[C@H](C(=O)O)CC4)n3C(=O)N(C)c3ccccc3)c2C1 [Compound 292]	0.1 to 1
COC(=O)N1CCc2ccc3c(nc([C@@H]4CCC[C@@H](C(=O)O)C4)n3Cc3cncc(Cl)n3)c2C1 [Compound 293]	0.1 to 1
COC(=O)N1CCc2ccc3c(nc(C4CCCCC4)n3[C@H](C)Cc3cccc(C(=O)O)c3)c2C1 [Compound 294]	0.1 to 1
COC(=O)N1CCc2ccc3c(nc([C@H]4CC[C@H](C(=O)O)CC4)n3[C@H](C)Cc3ccccc3Cl)c2C1 [Compound 295]	0.1 to 1
COC(=O)N1CCc2ccc3c(nc([C@H]4CC[C@H](C(=O)O)CC4)n3[C@@H](C)C[C@H]3CCCOC3)c2C1 [Compound 296]	0.1 to 1
COC(=O)N1CCc2ccc3c(nc([C@H]4CC[C@H](C(=O)O)CC4)n3[C@H](C)Cc3ccccc3Cl)c2C1 [Compound 297]	0.1 to 1

The remaining lines, values ahead:

IC50 [µM]	Compound
0.01 to 0.1	COC(=O)N1CCc2ccc3c(nc(C45CC(C4)C5)n3C[C@@H](C(=O)O)c3ccccc3)c2C1 [Compound 246]
0.01 to 0.1	COC(=O)N1CCc2c(C(=O)O)cc3c(nc(N4CCCCC4)n3C[C@H](C)c3ccccc3)c2C1 [Compound 247]
0.01 to 0.1	COC(=O)N1CCc2ccc3c(nc([C@H]4CC[C@@H](C(=O)O)CC4)n3CC(NC(C)=O)c3ccccc3)c2C1 (some centres unmarked) [Compound 248]
0.01 to 0.1	COC(=O)N1CCc2ccc3c(nc([C@H]4CC[C@H](C(=O)O)CC4)n3[C@@H](C)C[C@]3(C)CC[C@@H](OC)CC3)c2C1 [Compound 249]
0.01 to 0.1	COC(=O)N1CCc2ccc3c(nc([C@H]4CC[C@@H](OC)CC4)n3C[C@H](C(=O)O)c3ccccc3)c2C1 [Compound 250]
0.01 to 0.1	COC(=O)N1CCc2ccc3c(nc(C4CCCCC4)n3[C@H](C)C[C@@H]3CCCC[C@H]3C(=O)O)c2C1 [Compound 251]
0.01 to 0.1	COC(=O)N1CCc2ccc3c(nc(C4CCCCC4)n3CC[C@H]3CCCC[C@@H]3C(=O)O)c2C1 [Compound 252]
0.01 to 0.1	COC(=O)N1CCc2ccc3c(nc([C@H]4CC[C@H](C(=O)O)CC4)n3[C@H](C)Cc3cc(F)cc(F)c3)c2C1 [Compound 253]
0.01 to 0.1	COC(=O)N1CCc2ccc3c(nc([C@H]4CCC[C@H](C(=O)O)C4)n3Cc3cncc(Cl)n3)c2C1 [Compound 254]
0.01 to 0.1	COC(=O)N1CCc2ccc3c(nc([C@H]4CCC[C@H](C(=O)O)C4)n3C[C@H]3CC[C@H](OC)CC3)c2C1 [Compound 255]
0.01 to 0.1	COC(=O)N1CCc2c([C@H]3CCOC3)cc3c(nc(C4CCC(C(=O)O)CC4)n3[C@@H](C)Cc3ccccc3)c2C1 (some centres unmarked) [Compound 256]
0.01 to 0.1	COC(=O)N1CCc2ccc3c(nc([C@@H]4CCCOC4)n3C[C@H](C(=O)O)c3ccccc3)c2C1 [Compound 257]
0.01 to 0.1	COC(=O)N1CCc2ccc3c(nc(-c4ccc(C(C)(C)C(=O)O)cc4)n3[C@@H](C)Cn3cc(Cl)cn3)c2C1 [Compound 258]
0.01 to 0.1	COC(=O)N1CCc2ccc3c(nc([C@@H]4CCC[C@@H](C(=O)O)C4)n3C[C@H]3CC[C@@H](OC)CC3)c2C1 [Compound 259]
0.01 to 0.1	COC(=O)N1CCc2ccc3c(nc([C@H]4CC[C@H](C(=O)O)CC4)n3[C@@H](C)C[C@@H]3CCCCO3)c2C1 [Compound 260]
0.01 to 0.1	COC(=O)N1CCc2ccc3c(nc([C@H]4CCC[C@H](C(=O)O)C4)n3[C@@H](C)Cc3ccccc3)c2C1 [Compound 261]

From US20250188079A1, “INHIBITING CYCLIC AMP-RESPONSIVE ELEMENT-BINDING PROTEIN (CREB)” (Forma Therapeutics, Inc., priority 2019, published 2025)
